Laboratory results taken from patent publication US20110195900A1, “PEPTIDIC PTH RECEPTOR AGONISTS” (FERRING B.V., priority 2008, published 2011).
Non-standard residues stand in square brackets, D forms with d. Residues, ends and D or L forms follow the SMILES beside them. 1Nal = N[C@@H](Cc1cccc2ccccc12)C(=O)O; β3hI = CC[C@H](C)[C@H](N)CC(=O)O; Nle = CCCC[C@H](N)C(=O)O; Aib = CC(C)(N)C(=O)O

How the values were obtained:
[1] = target: T1, human PTH-1 receptor (Homo sapiens, UniProt Q03431); assay: Reporter gene assay (CRE-luciferase) for agonist activity in transiently transfected HEK-293 cells; format: cell-based; settings: for hPTHR-2/hPTHR-1: Table 3, selectivity for hPTH-1 receptor over hPTH-2 receptor
T1 construct: expressed in transfected cells; host or cells: HEK-293
T1 sequence (Q03431 27-593): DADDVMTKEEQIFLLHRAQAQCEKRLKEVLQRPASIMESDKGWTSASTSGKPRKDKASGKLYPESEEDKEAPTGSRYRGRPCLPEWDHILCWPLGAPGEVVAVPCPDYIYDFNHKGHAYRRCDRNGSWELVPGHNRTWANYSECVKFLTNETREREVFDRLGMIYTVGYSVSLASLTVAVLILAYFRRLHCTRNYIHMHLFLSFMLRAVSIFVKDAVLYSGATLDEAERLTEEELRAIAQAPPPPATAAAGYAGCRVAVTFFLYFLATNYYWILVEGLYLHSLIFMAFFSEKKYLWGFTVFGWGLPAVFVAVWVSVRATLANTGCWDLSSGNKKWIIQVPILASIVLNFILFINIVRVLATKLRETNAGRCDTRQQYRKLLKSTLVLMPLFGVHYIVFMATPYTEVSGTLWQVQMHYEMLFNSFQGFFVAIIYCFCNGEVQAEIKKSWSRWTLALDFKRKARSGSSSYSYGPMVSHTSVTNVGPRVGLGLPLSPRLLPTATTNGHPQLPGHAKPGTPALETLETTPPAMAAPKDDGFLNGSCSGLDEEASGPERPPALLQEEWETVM
In short: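 HEK-293 cells transiently transfected with SV40-driven human PTH-1 receptor and CRE-luciferase reporter, exposed to serial compound dilutions for 4-5 h, then lysed for luciferase readout; efficacy and EC50 by non-linear regression, PTH (1-34) as internal control, n≥3. Selectivity measured in analogous human PTH-2 receptor luciferase reporter assays.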

[2] = target: T2, human PTH-2 receptor (Homo sapiens, UniProt P49190); assay: Luciferase-based transcriptional reporter gene assay for selectivity; format: cell-based
T2 construct: expressed in transfected cells
T2 sequence (P49190 25-550): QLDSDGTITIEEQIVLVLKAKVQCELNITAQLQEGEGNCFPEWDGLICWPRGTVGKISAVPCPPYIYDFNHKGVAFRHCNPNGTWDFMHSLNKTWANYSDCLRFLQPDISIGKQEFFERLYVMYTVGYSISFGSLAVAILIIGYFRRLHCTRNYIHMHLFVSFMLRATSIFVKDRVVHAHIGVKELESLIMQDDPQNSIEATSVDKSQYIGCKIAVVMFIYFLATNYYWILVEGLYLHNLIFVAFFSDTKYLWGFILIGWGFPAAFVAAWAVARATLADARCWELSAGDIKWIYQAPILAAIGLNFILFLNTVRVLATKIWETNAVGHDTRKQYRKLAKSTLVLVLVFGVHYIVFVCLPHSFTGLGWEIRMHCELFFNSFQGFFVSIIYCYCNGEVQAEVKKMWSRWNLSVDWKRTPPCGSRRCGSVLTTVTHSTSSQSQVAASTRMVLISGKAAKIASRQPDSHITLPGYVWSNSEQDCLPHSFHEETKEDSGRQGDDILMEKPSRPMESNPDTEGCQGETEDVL
Method: Agonist activity of compounds on the human PTH-1 receptor was determined in a reporter gene assay by transiently transfecting HEK-293 cells with plasmids encoding human PTH-1 receptor under control of the SV40 promoter and a luciferase reporter gene under control of cAMP responsive elements (CRE). See Himmler et al, J. Recept. Res. 13 (1993) 79-94, for further guidance on this assay. Transfected cells were exposed to serial dilutions of compounds for 4-5 hours followed by lysis of cells, determination of luciferase activity, and determination of compound efficacies and EC50 values through non-linear regression.
PTH (1-34) was used as an internal control in each experiment and compounds were tested in at least three independent experiments. To determine selectivity, compounds were tested in luciferase-based transcriptional reporter gene assays expressing the human PTH-2 receptor.

CCCC[C@H](NC(=O)[C@H](CC(C)C)NC(=O)[C@H](CCC(N)=O)NC(=O)[C@@H](NC(=O)[C@H](CCC(=O)O)NC(=O)[C@H](CO)NC(=O)[C@@H](NC(=O)[C@@H](N)CO)C(C)C)[C@@H](C)CC)C(=O)N[C@@H](Cc1c[nH]cn1)C(=O)N[C@@H](CC(N)=O)C(=O)N[C@@H](CC(C)C)C(=O)NCC(=O)N[C@@H](CCCCN)C(=O)N[C@@H](Cc1c[nH]cn1)C(=O)N[C@@H](CC(C)C)C(=O)N[C@@H](CC(N)=O)C(=O)N[C@@H](CO)C(=O)N[C@H](CC(=O)N[C@@H](CCC(=O)O)C(=O)N[C@@H](CCCNC(=N)N)C(=O)N[C@H](C(=O)N[C@@H](CCC(=O)O)C(=O)N[C@@H](Cc1cccc2ccccc12)C(=O)N[C@@H](CC(C)C)C(=O)N[C@@H](CCCNC(=N)N)C(=O)N[C@@H](CCCCN)C(=O)N[C@@H](CC(C)C)C(=O)N[C@@H](CC(C)C)C(=O)N[C@@H](CCC(N)=O)C(=O)N[C@@H](CC(=O)O)C(=O)N[C@H](C(=O)N[C@@H](Cc1c[nH]cn1)C(=O)N[C@@H](CCCCN)C(=O)N[C@@H](Cc1ccccc1)C(N)=O)C(C)C)C(C)C)[C@@H](C)CC [SEQ ID NO: 28, [Nle^8, β-hIle^18,1-Nal^23, Leu^27, Lys^33] hPTH (1-34)-NH2] (H-SVSEIQL[Nle]HNLGKHLNS[β3hI]ERVE[1Nal]LRKLLQDVHKF-NH2)
hPTHR-2/hPTHR-1 ([1]; ratio of EC50 values): 209
EC50 [2]: 32 nM

CCCC[C@H](NC(=O)[C@H](CC(C)C)NC(=O)[C@H](CCC(N)=O)NC(=O)[C@@H](NC(=O)[C@H](CCC(=O)O)NC(=O)[C@H](CO)NC(=O)[C@@H](NC(=O)[C@@H](N)CO)C(C)C)[C@@H](C)CC)C(=O)N[C@@H](Cc1c[nH]cn1)C(=O)N[C@@H](CC(N)=O)C(=O)N[C@@H](CC(C)C)C(=O)NCC(=O)N[C@@H](CCCCN)C(=O)N[C@@H](Cc1c[nH]cn1)C(=O)N[C@@H](CC(C)C)C(=O)N[C@@H](CC(N)=O)C(=O)N[C@@H](CO)C(=O)N[C@H](CC(=O)N[C@@H](CCC(=O)O)C(=O)N[C@@H](CCCNC(=N)N)C(=O)N[C@H](C(=O)N[C@@H](CCC(=O)O)C(=O)N[C@@H](Cc1cccc2ccccc12)C(=O)N[C@@H](CC(C)C)C(=O)N[C@@H](CCCNC(=N)N)C(=O)N[C@@H](CCCCN)C(=O)N[C@@H](CC(C)C)C(=O)N[C@@H](CC(C)C)C(=O)N[C@@H](CCC(N)=O)C(=O)N[C@@H](CC(=O)O)C(=O)N[C@H](C(=O)N[C@@H](Cc1c[nH]cn1)C(=O)N[C@@H](CC(N)=O)C(=O)N[C@@H](CCCCN)C(N)=O)C(C)C)C(C)C)[C@@H](C)CC [SEQ ID NO: 30, [Nle^8, β-hIle^18,1-Nal^23, Leu^27, Lys^34] hPTH (1-34)-NH2] (H-SVSEIQL[Nle]HNLGKHLNS[β3hI]ERVE[1Nal]LRKLLQDVHNK-NH2; N-terminus assumed)
EC50 [1]: 0.1 nM
hPTHR-2/hPTHR-1 ([1]; ratio of EC50 values): 173
EC50 [2]: 17 nM

CCCC[C@H](NC(=O)[C@H](CC(C)C)NC(=O)[C@H](CCC(N)=O)NC(=O)[C@@H](NC(=O)[C@H](CCC(=O)O)NC(=O)[C@H](CO)NC(=O)[C@@H](NC(=O)[C@@H](N)CO)C(C)C)[C@@H](C)CC)C(=O)N[C@@H](Cc1c[nH]cn1)C(=O)N[C@@H](CC(N)=O)C(=O)N[C@@H](CC(C)C)C(=O)NC(C)(C)C(=O)N[C@@H](CCCCN)C(=O)N[C@@H](Cc1c[nH]cn1)C(=O)N[C@@H](CC(C)C)C(=O)N[C@@H](CC(N)=O)C(=O)N[C@@H](CO)C(=O)N[C@H](CC(=O)N[C@@H](CCC(=O)O)C(=O)N[C@@H](CCCNC(=N)N)C(=O)N[C@H](C(=O)N[C@@H](CCC(=O)O)C(=O)N[C@@H](Cc1cccc2ccccc12)C(=O)N[C@@H](CC(C)C)C(=O)N[C@@H](CCCNC(=N)N)C(=O)N[C@@H](CCCCN)C(=O)N[C@@H](CC(C)C)C(=O)N[C@@H](CC(C)C)C(=O)N[C@@H](CCC(N)=O)C(=O)N[C@@H](CC(=O)O)C(=O)N[C@H](C(=O)N[C@@H](Cc1c[nH]cn1)C(=O)N[C@@H](CC(N)=O)C(=O)N[C@@H](Cc1ccccc1)C(N)=O)C(C)C)C(C)C)[C@@H](C)CC [SEQ ID NO: 32, [Nle^8, Aib^12, β-hIle^18,1-Nal^23, Leu^27] hPTH (1-34)-NH2] (H-SVSEIQL[Nle]HNL[Aib]KHLNS[β3hI]ERVE[1Nal]LRKLLQDVHNF-NH2)
hPTHR-2/hPTHR-1 ([1]; ratio of EC50 values): 55
EC50 [2]: 13 nM

CCCC[C@H](NC(=O)[C@H](CC(C)C)NC(=O)[C@H](CCC(N)=O)NC(=O)[C@@H](NC(=O)[C@H](CCC(=O)O)NC(=O)[C@H](CO)NC(=O)[C@@H](NC(=O)[C@@H](N)CO)C(C)C)[C@@H](C)CC)C(=O)N[C@@H](Cc1c[nH]cn1)C(=O)N[C@@H](CC(N)=O)C(=O)N[C@@H](CC(C)C)C(=O)NCC(=O)N[C@@H](CCCCN)C(=O)N[C@@H](Cc1c[nH]cn1)C(=O)N[C@@H](CC(C)C)C(=O)N[C@@H](CC(N)=O)C(=O)N[C@@H](CO)C(=O)N[C@H](CC(=O)N[C@@H](CCC(=O)O)C(=O)N[C@@H](CCCNC(=N)N)C(=O)N[C@H](C(=O)N[C@@H](CCC(=O)O)C(=O)N[C@@H](Cc1cccc2ccccc12)C(=O)N[C@@H](CC(C)C)C(=O)N[C@@H](CCCNC(=N)N)C(=O)N[C@@H](CCCCN)C(=O)N[C@@H](CC(C)C)C(=O)N[C@@H](CC(C)C)C(=O)N[C@@H](CCC(N)=O)C(=O)N[C@@H](CCCNC(=N)N)C(=O)N[C@H](C(=O)N[C@@H](Cc1c[nH]cn1)C(=O)N[C@@H](CC(N)=O)C(=O)N[C@@H](Cc1ccccc1)C(N)=O)C(C)C)C(C)C)[C@@H](C)CC [SEQ ID NO: 35, [Nle^8, β-hIle^18,1-Nal^23, Leu^27, Arg^30] hPTH (1-34)-NH2] (H-SVSEIQL[Nle]HNLGKHLNS[β3hI]ERVE[1Nal]LRKLLQRVHNF-NH2; N-terminus assumed)
EC50 [1]: 0.18 nM
hPTHR-2/hPTHR-1 ([1]; ratio of EC50 values): 40
EC50 [2]: 7 nM

CCCC[C@H](NC(=O)[C@H](CC(C)C)NC(=O)[C@H](CCC(N)=O)NC(=O)[C@@H](NC(=O)[C@H](CCC(=O)O)NC(=O)[C@H](CO)NC(=O)[C@@H](NC(=O)C(C)(C)N)C(C)C)[C@@H](C)CC)C(=O)N[C@@H](Cc1c[nH]cn1)C(=O)N[C@@H](CC(N)=O)C(=O)N[C@@H](CC(C)C)C(=O)NCC(=O)N[C@@H](CCCCN)C(=O)N[C@@H](Cc1c[nH]cn1)C(=O)N[C@@H](CC(C)C)C(=O)N[C@@H](CC(N)=O)C(=O)N[C@@H](CO)C(=O)N[C@H](CC(=O)N[C@@H](CCC(=O)O)C(=O)N[C@@H](CCCNC(=N)N)C(=O)N[C@H](C(=O)N[C@@H](CCC(=O)O)C(=O)N[C@@H](Cc1cccc2ccccc12)C(=O)N[C@@H](CC(C)C)C(=O)N[C@@H](CCCNC(=N)N)C(=O)N[C@@H](CCCCN)C(=O)N[C@@H](CC(C)C)C(=O)N[C@@H](CC(C)C)C(=O)N[C@@H](CCC(N)=O)C(=O)N[C@@H](CC(=O)O)C(=O)N[C@H](C(=O)N[C@@H](Cc1c[nH]cn1)C(=O)N[C@@H](CC(N)=O)C(=O)N[C@@H](Cc1ccccc1)C(N)=O)C(C)C)C(C)C)[C@@H](C)CC [SEQ ID NO: 36, [Aib^1, Nle^8, β-hIle^18,1-Nal^23, Leu^27] hPTH (1-34)-NH2] (H-[Aib]VSEIQL[Nle]HNLGKHLNS[β3hI]ERVE[1Nal]LRKLLQDVHNF-NH2)
EC50 [1]: 0.04 nM
hPTHR-2/hPTHR-1 ([1]; ratio of EC50 values): 372
Selectivity hPTHR-2/hPTHR-1 ([1]; Table 4 comparison data, ratio of EC50 values): 372
EC50 [2]: 16 nM

CCCC[C@H](NC(=O)[C@H](CC(C)C)NC(=O)[C@H](CCC(N)=O)NC(=O)[C@@H](NC(=O)[C@H](CCC(=O)O)NC(=O)[C@H](CO)NC(=O)[C@@H](NC(=O)[C@@H](N)CO)C(C)C)[C@@H](C)CC)C(=O)N[C@@H](Cc1c[nH]cn1)C(=O)N[C@@H](CC(N)=O)C(=O)N[C@@H](CC(C)C)C(=O)NCC(=O)N[C@@H](CCCCN)C(=O)N[C@@H](Cc1c[nH]cn1)C(=O)N[C@@H](CC(C)C)C(=O)N[C@@H](CCCCN)C(=O)N[C@@H](CO)C(=O)N[C@H](CC(=O)N[C@@H](CCC(=O)O)C(=O)N[C@@H](CCCNC(=N)N)C(=O)N[C@H](C(=O)N[C@@H](CCC(=O)O)C(=O)N[C@@H](Cc1cccc2ccccc12)C(=O)N[C@@H](CC(C)C)C(=O)N[C@@H](CCCNC(=N)N)C(=O)N[C@@H](CCCCN)C(=O)N[C@@H](CC(C)C)C(=O)N[C@@H](CC(C)C)C(=O)N[C@@H](CCC(N)=O)C(=O)N[C@@H](CCCNC(=N)N)C(=O)N[C@H](C(=O)N[C@@H](Cc1c[nH]cn1)C(=O)N[C@@H](CC(N)=O)C(=O)N[C@@H](Cc1ccccc1)C(N)=O)C(C)C)C(C)C)[C@@H](C)CC [SEQ ID NO: 37, [Nle^8, Lys^16, β-hIle^18,1-Nal^23, Leu^27, Arg^30] hPTH (1-34)-NH2] (H-SVSEIQL[Nle]HNLGKHLKS[β3hI]ERVE[1Nal]LRKLLQRVHNF-NH2)
EC50 [1]: 0.14 nM
hPTHR-2/hPTHR-1 ([1]; ratio of EC50 values): 97
EC50 [2]: 14 nM
